According to paper PMC8997848, “How Cargo Identity Alters the Uptake of Cell-Penetrating Peptide (CPP)/Cargo Complexes: A Study on the Effect of Net Cargo Charge and Length” (Cells, 2022):

What was measured:
HeLa cells [1] = experiment: Live-cell fluorescent microscopy with line scans of intracellular peptide distribution; assay type: cell-based; details: for intracellular distribution of fluorescence / cellular uptake seen by fluorescence microscopy: 10 μM peptide, 60 min, 37 °C; for intracellular distribution of fluorescence: images and line scans across individual cells (Figures 3, 4, S8); for cellular uptake seen by fluorescence microscopy: FITC filter (Figure 3)
Method: One day prior to the experiment, HeLa cells were seeded in 8-chambered Falcon Culture Slides (Corning) at a density of 3 × 10^4 cells/mL. On the day of the experiment, cells were washed once with ECB before incubation with 10 μM peptide solution (500 μL/well) for 1 h at 37 °C. Following incubation, cells were washed twice with ECB then incubated with 8 μM Hoechst 3342 nuclei acid stain (ThermoFisher Scientific, Carlsbad, CA, USA) for 20 min at room temperature. Cellular fluorescence was visualized using a Leica DMi8 inverted microscope outfitted with a 40× objective (Leica N PLAN L, 0.55× correction). Images were acquired using the digital CMOS camera C11440 (Hamamatsu Photonics K.K., Japan) with a fixed exposure time of 500 ms for the FITC filter, 150 ms for the DAPI filter, and 20 ms for brightfield. The following excitation/emission filters (Chroma Tech. Corp, Bellows Falls, VT, USA) were used to image the device: fluorescein isothiocyanate-FITC (λex 440–520 nm and λem 497–557 nm) for capturing the signal from FAM and DAPI (λex 335–385 nm and λem 405–465 nm) for capturing the signal from the Hoescht stain. Image acquisition was controlled using the Leica Application Suite software (LAS X, version 3.7.4.23463), where all images were recorded using the same parameters. The imaging was followed by quantitative analysis, where a manual line scan region of interest (ROI) was drawn across the center of the cells to quantify their fluorescent signals. Random ROIs were also drawn in free space not containing cells to measure background noise for each image. The fluorescent values were normalized by subtracting the noise from the measured signal.

HeLa cells [2] = details: cited from earlier work
Source text: In addition to improving the permeability and stability of the CPPs themselves, there is significant interest in utilizing known CPPs to deliver bioactive cargoes, such as nanoparticles, therapeutics, or biosensors, to cells. CPPs have found great success of late as delivery vehicles for peptide-based therapeutics, such as PROTACs (proteolysis targeting chimeras), which facilitate the degradation of “undruggable” proteins by selectively ubiquitinating the target protein for proteasome-mediated degradation. […] With the majority of well characterized CPPs being unstructured, and considering the differences in uptake levels, cytotoxicity, and intracellular stability that has been observed when comparing unstructured and structured CPPs, it was important to compare the effects of net cargo charge and length on both unstructured (nona-arginine, R1) and structured (RWRWR, H1) CPPs. To examine the ...

HeLa cells [3] = experiment: Quantification of CPP and CPP/cargo uptake by fluorometry of FAM signal in cell lysate; assay type: cell-based; details: for time dependence of uptake (single factor ANOVA): 10 µM peptide, 10, 20, 40, 60, 100, 120 min, triplicate (Tables S1, S6); for time-dependent analysis of peptide uptake (in words): 10-120 min, triplicate (Figures S5, S7); for uptake of CPP/cargo complex compared to the H1 CPP alone (in words) / effect of net cargo length and arginine position on cellular uptake (one-way ANOVA): 10 µM; for uptake of CPP/cargo complex compared to the H1 CPP alone (in words): uptake normalized against H1, triplicate (Figure 1A); for effect of net cargo length and arginine position on cellular uptake (one-way ANOVA): 1 h, cargoes of +2 charge, 4 or 8 residues, triplicate (Figure 1B, Table S3)
Method: The quantification of peptide uptake was performed using a protocol previously utilized by Safa et al. and Vaithiyanathan et al.. Three days prior to the experiment, HeLa cells were seeded at a density of 1 × 10^4 cells/mL in 12 well plates. Prior to experiments, peptides were reconstituted in sodium phosphate buffer (2.26 mM NaH2PO4·H2O and 8.43 mM Na2HPO4·7H2O) and the peptide concentration was determined using a NanoDrop at the wavelength of 492 nm using the UV-vis function. On the day of the experiment, peptides were diluted to the desired final concentration with extracellular buffer, ECB (5.036 mM HEPES pH 7.4, 136.89 mM NaCl, 2.68 mM KCl, 2.066 mM MgCl2·6H2O, 1.8 mM, CaCl2·2H2O, and 5.55 mM glucose). Cells were washed once with PBS followed by peptide incubation (500 μL/well) at 37 °C. Plates were wrapped in aluminum foil during incubation to avoid deactivating the FAM tag on the peptide. Following the incubation, the peptide solutions were removed, and cells were washed twice with ECB. Cells were then trypsinized (250 μL/well) for 10 min at room temperature. The cells were resuspended in ECB (1 mL/well) and transferred to microcentrifuge tubes. The samples were centrifuged at 1800 rcf for 2.5 min. The supernatant was removed, and the isolated cells were lysed with 0.1 M NaOH (250 μL/tube). Samples were centrifuged again at 14,000 rcf for 5 min to remove any remaining protein bound to the membranes before transferring 150 μL of clarified lysate to a 96 well plate. Fluorometry (Perkin Elmer (Waltham, MA, USA) Wallac 1420 VICTOR2 multilabel HTS counter) was used to quantify the signal resulting from the FAM tag using an excitation filter of 490 nm and an emission filter of 535 nm. For each experiment, a no peptide control (cells incubated with ECB only) was performed. To measure the background signal of each peptide, the peptide solutions used in each experiment were analyzed by fluorometry to normalize the fluorescent signal for each sample. Signals were normalized using Equation (1):Normalized Fluorescence = 1000 × (F − C)/(P − B)(1) where F denotes the fluorescent signal of cells incubated with peptide, C denotes the fluorescent signal of cells incubated with no peptide, P denotes the average fluorescent signal of the peptide in suspension, and B denotes the average fluorescent signal of the ECB. Reported data for each experiment is the average of triplicate samples. Statistical analysis was carried out using JMP Pro 16 software (SAS Institute).

HeLa cells [4] = experiment: alamarBlue cell viability assay; assay type: cell-based; details: 37 °C, 4 h (2 h in method and Figure 2), then alamarBlue 4 h, normalized to no peptide control, triplicate; for effect on cellular viability at 5 µM: HeLa cells, 5 µM peptide; for decrease in cellular viability: HeLa cells, 10, 20, and 30 μM peptide
Method: Two days prior to the experiment, HeLa cells were plated at a density of 1 × 10^5 cells/well in a 96 well plate. Cells were washed once with PBS and incubated with peptide solutions for 2 h at 37 °C. Following this incubation period, cells were washed with ECB and incubated with a mixture of 10 μL alamarBlue Viability Reagent (ThermoFisher Scientific, Carlsbad, CA, USA) in 90 μL serum-free media for 4 h at 37 °C. The fluorescent signal of alamarBlue was measured using fluorometry with an excitation filter of 532 nm and an emission filter of […]. A no peptide control was also performed to normalize the fluorescent signals. Signals were normalized using Equation (2):Normalized Cell Viability = F/C(2) where F denotes the fluorescent signal of cells incubated with peptide and C denotes the fluorescent signal of cells incubated with no peptide. The reported data are the average of triplicate samples.

[5] = cited from earlier work
Source text: With the majority of well characterized CPPs being unstructured, and considering the differences in uptake levels, cytotoxicity, and intracellular stability that has been observed when comparing unstructured and structured CPPs, it was important to compare the effects of net cargo charge and length on both unstructured (nona-arginine, R1) and structured (RWRWR, H1) CPPs. To examine the ...

[6] = 10 µM peptide, 60 min, 37 °C, FAM fluorometry of lysate, triplicate (Figure 5)
[7] = 10 µM peptide, FAM fluorometry of lysate

FAM-RRRRRRRRR [R1, unstructured nona-arginine CPP, FAM labelled; commercial peptide ARG from AnaSpec, reference compound]
intracellular distribution of fluorescence (HeLa cells [1]): punctate regions
uptake efficiency compared to the RWRWR (H1) CPP (HeLa cells [2]): 2 fold

FAM-RRRRRRRRR-GGGGGGGG [R4, nona-arginine CPP with 8-residue neutral cargo]
decrease in cellular internalization compared to R1 CPP (HeLa cells [3]; [6]): 50%

FAM-RRRRRRRRR-GRGR [R2, nona-arginine CPP with 4-residue cargo GRGR, net charge +2]
time dependence of uptake (single factor ANOVA) (HeLa cells [3]): time-dependent
time-dependent analysis of peptide uptake (in words) (HeLa cells [3]; [7]): greater uptake that the R1 CPP
increase in uptake compared to counterpart with H1 CPP (H2 and H5, respectively) (HeLa cells [3]; [6]): 140%
increase in uptake compared to the R1 CPP (HeLa cells [3]; [6]): 29%

FAM-RRRRRRRRR-GRGRGRGR [R3, nona-arginine CPP with 8-residue cargo, net charge +4]
time dependence of uptake (single factor ANOVA) (HeLa cells [3]): time-dependent
time-dependent analysis of peptide uptake (in words) (HeLa cells [3]; [7]): greater uptake that the R1 CPP
increase in uptake compared to counterpart with H1 CPP (H2 and H5, respectively) (HeLa cells [3]; [6]): 140%
increase in uptake compared to the R1 CPP (HeLa cells [3]; [6]): 103%

RWVRVpGO(FAM)WIRQ [H1, RWRWR β-hairpin CPP, FAM on ornithine side chain]
time dependence of uptake (single factor ANOVA) (HeLa cells [3]): demonstrate time dependence
time-dependent analysis of peptide uptake (in words) (HeLa cells [3]; [7]): greatest penetration
effect on cellular viability at 5 µM (HeLa cells [4]): did not result in a decrease in cellular viability
decrease in cellular viability (HeLa cells [4]): ~ 5%
cellular uptake seen by fluorescence microscopy (HeLa cells [1]): successful cellular uptake
intracellular distribution of fluorescence (HeLa cells [1]): evenly distributed throughout the cell
time needed for uptake / sufficient internalization (HeLa cells [2]; HeLa cells): < 10 min
increased intracellular stability compared to nona-arginine CPP [5]: 20 fold

RWVRVpGO(FAM)WIRQ-GEGE [H4, H1 CPP with 4-residue cargo GEGE, net charge −2]
time dependence of uptake (single factor ANOVA) (HeLa cells [3]): demonstrate time dependence
uptake of CPP/cargo complex compared to the H1 CPP alone (in words) (HeLa cells [3]; 60 min, 37 °C): diminished uptake

RWVRVpGO(FAM)WIRQ-GEGEGEGE [H7, H1 CPP with 8-residue cargo, net charge −4]
time dependence of uptake (single factor ANOVA) (HeLa cells [3]): no time dependence
uptake of CPP/cargo complex compared to the H1 CPP alone (in words) (HeLa cells [3]; 60 min, 37 °C): diminished uptake
cellular uptake seen by fluorescence microscopy (HeLa cells [1]): impermeability

RWVRVpGO(FAM)WIRQ-GGGG [H3, H1 CPP with 4-residue cargo GGGG, net charge 0]
time dependence of uptake (single factor ANOVA) (HeLa cells [3]): no time dependence
uptake of CPP/cargo complex compared to the H1 CPP alone (in words) (HeLa cells [3]; 60 min, 37 °C): diminished uptake

RWVRVpGO(FAM)WIRQ-GGGGGGGG [H6, H1 CPP with 8-residue cargo, net charge 0]
time dependence of uptake (single factor ANOVA) (HeLa cells [3]): demonstrate time dependence
uptake of CPP/cargo complex compared to the H1 CPP alone (in words) (HeLa cells [3]; 60 min, 37 °C): diminished uptake

RWVRVpGO(FAM)WIRQ-GGGGGRGR [H8, H1 CPP with 8-residue +2 cargo, arginines closer to the C-terminus]
effect of net cargo length and arginine position on cellular uptake (one-way ANOVA) (HeLa cells [3]): no significant difference in cellular uptake

RWVRVpGO(FAM)WIRQ-GRGR [H2, H1 CPP with 4-residue cargo GRGR, net charge +2]
time dependence of uptake (single factor ANOVA) (HeLa cells [3]): demonstrate time dependence
time-dependent analysis of peptide uptake (in words) (HeLa cells [3]; [7]): greatest penetration
effect of net cargo length and arginine position on cellular uptake (one-way ANOVA) (HeLa cells [3]): no significant difference in cellular uptake
effect on cellular viability at 5 µM (HeLa cells [4]): did not result in a decrease in cellular viability
decrease in cellular viability (HeLa cells [4]): ~ 5%

RWVRVpGO(FAM)WIRQ-GRGRGGGG [H9, H1 CPP with 8-residue +2 cargo, arginines closer to the N-terminus]
effect of net cargo length and arginine position on cellular uptake (one-way ANOVA) (HeLa cells [3]): no significant difference in cellular uptake

RWVRVpGO(FAM)WIRQ-GRGRGRGR [H5, H1 CPP with 8-residue cargo, net charge +4]
increase in CPP/cargo uptake on increasing arginine residues from 2 (H2) to 4 (H5) (HeLa cells [3]; 10 µM peptide in ECB, 60 min, 37 °C, trypsinized, lysed in 0.1 M NaOH, FAM fluorometry ex 490/em 535 nm, average of triplicate, compared to H2): 58%
time dependence of uptake (single factor ANOVA) (HeLa cells [3]): demonstrate time dependence
time-dependent analysis of peptide uptake (in words) (HeLa cells [3]; [7]): greatest penetration
effect on cellular viability at 5 µM (HeLa cells [4]): did not result in a decrease in cellular viability
decrease in cellular viability (HeLa cells [4]): ~ 5%
cellular uptake seen by fluorescence microscopy (HeLa cells [1]): successful cellular uptake
intracellular distribution of fluorescence (HeLa cells [1]): punctate regions of increased fluorescence
cell-to-cell heterogeneity of uptake compared to cells incubated with H1 (HeLa cells [1]; 10 μM, average fluorescence intensity in individual cells (Figure S6)): substantially higher heterogeneity
average uptake from single-cell fluorescence intensity compared to H1 (HeLa cells [1]; 10 μM, line scans across 20 single cells, normalized against background (Figure S6)): substantially higher average uptake
